Test results published in ChEMBL document CHEMBL3507680, “University of Dundee, Gates Library screen for HepG2 cell viability”.

Test: Human HepG2 cell viability assay in 384 well format
Format: toxicity, cell-based
Parameters: dose 125 nL, time 70.5 hour; cytotoxicity at 70.5 h: concentration not given beside the values
Settings: HepG2 cells, read-out: Inhibition

SMILES | cytotoxicity at 70.5 h
COc1ncccc1CN1CC[C@@]2(O)CCN(C(=O)C3CCC3)C[C@H]2C1 | -5.11%
COc1ccccc1OCCCN1CCNC1=O | -8.47%
c1cnc(N2C[C@@H]3CC[C@H](C2)N(Cc2ccsc2)C3)nc1 | -9.26%
Cc1ccc(N2C[C@@H]3CN(C(=O)NC4CCCC4)C[C@]3(C(=O)O)C2)nn1 | 2.02%
C=C1C(C)(C)[C@H]2CC[C@]1(C(=O)N1CCC(n3cc(CCO)nn3)CC1)C2 | -10.3%
COc1ccccc1S(=O)(=O)N1CCC2(CC1)[C@H](O)C[C@@H]2O | -10.2%
O=C(c1ccc2c(c1)[nH]c(=O)n2[C@H]1CC[C@H](O)CC1)N1CCOCC1 | -12.1%
CN(Cc1cnc(N)nc1)C(=O)c1coc(COc2cccc(F)c2)n1 | 0.199%
Cc1n[nH]c(C)c1CCc1n[nH]c(=O)n1Cc1cccs1 | -0.375%
Cc1cc(C)n(CC(C)Nc2nc(-c3ccncc3)nc3c2CNC3)n1 (stereo not given) | 17.3%
CCN1CCN(C[C@@H]2CN(c3ncc(Cl)cc3F)C[C@@H]2CO)CC1 | -10.9%
CSCC[C@H](N)C(=O)NCc1cc2n(n1)CCCN(C(=O)N(C)C)C2 | -8.91%
NC1CCCCN(Cc2cc(C3CCCCC3)no2)C1 (stereo not given) | -7.91%
Cc1ccc(NC(=O)CN[C@H](C(N)=O)C(C)C)cc1F | 13.9%
Cc1cc(C)cc(CN2CCN(Cc3cc(C#N)n(C)c3)CC2=O)c1 | -6.92%
CS(=O)(=O)c1ccc(-c2cc(C3CC3)c(C#N)c(N)n2)cc1 | 0.0408%
CC(C)=CCN1CCN(Cc2cc(C)c(O)c(C)c2)CC1CCO (stereo not given) | 9.39%
O=C1CCC2(CCN(Cc3nccs3)CC2)CN1CCCO | -6.67%
COc1ccc(C(=O)N2CCC3(CC2)c2ccccc2[C@@H](N)[C@@H]3O)cc1 | 0.101%
Cc1nnsc1C(=O)N1CCN(C(=O)C2CCC2)[C@@H]2CS(=O)(=O)C[C@@H]21 | -10.8%
O=c1cc(N2CCCC2)cnn1CC(F)F | -6.13%
Cn1ccnc1-c1cn(CCCc2nnc(N)s2)nn1 | -19.9%
CCC1CN(C(=O)c2cc(C(C)=O)c(C)[nH]c2=O)CCN1C(C)C (stereo not given) | -9.37%
O=C(NCCO)c1coc(CN2CCN(c3ccccc3F)CC2)n1 | -5.22%
COCCN1C(=O)[C@H]2CC[C@@H]1CN(Cc1nnc(C3CC3)o1)C2 | 19.1%
CCCc1ccc2oc(C(=O)N3CCCN(C)CC3)c(C)c2c1 | -2.52%
CCc1ncc2c(n1)CN(C(=O)c1c(C)[nH]c(C(C)=O)c1C)C2 | -9.15%
CCN1CCCC(C)(C(=O)NCc2nnnn2-c2ccccc2)C1 (stereo not given) | -5.49%

SMILES | cytotoxicity at 70.5 h
COc1ccc2c(c1)C(C(=O)N(C)CCc1scnc1C)CC(=O)N2 (stereo not given) | -5.27%
CCCn1cc(C(=O)NCCC(=O)NC2CCCCC2)c(C)n1 | -4.38%
Cc1cc(C)c2nc(CN3CCC(C#N)CC3)cc(O)c2c1 | -1.43%
CN(C)S(=O)(=O)N1C[C@@H]2CC[C@H](C1)N(Cc1cccc(C#N)c1)C2 | -8.84%
CN(Cc1ccoc1)C(=O)Cn1ncc(N(C)C)cc1=O | 9.67%
Cc1nn(CC(=O)NCCc2ccncc2)c(=O)n1Cc1ccccc1 | 1.25%
CN(Cc1nc(CC2CC2)no1)CC1COc2ccccc2O1 (stereo not given) | -3.03%
CC(C)n1ccnc1CN1C(=O)OC[C@@H]1c1ccccc1 | -2.47%
FC(F)(F)C1CN(Cc2cnc3c(-c4ccccc4)cnn3c2)CCO1 (stereo not given) | -7.58%
CN(C)c1nc2c(c(N3CCCC3)n1)CCN(C(=O)c1ccc[nH]1)CC2 | 25.5%
CCn1ccnc1CN(C)Cc1nc(Cc2cccc(F)c2)no1 | 11.1%
CCCNC(=O)N1CCCC2(CCC(=O)N(CCc3c[nH]cn3)C2)C1 (stereo not given) | -1.2%
CCC(CO)N(Cc1ccco1)C(=O)c1ccccc1SC (stereo not given) | 10.8%
Cc1nc2c(c(N3CCCOCC3)n1)CCN(C(=O)N1CCCC1)CC2 | -4.22%
CC(=O)c1ccc(CN2CC(Oc3ccccc3C)C2)cc1 | -1.63%
CNC(=O)c1cc(NC(=O)NCC2CCS(=O)(=O)C2)ccc1OC (stereo not given) | 19.9%
Cn1ncc2c(N3CC(N4CCCCC4)C3)nc(C3CCCC3)nc21 | -4.55%
COCCC(=O)N1CCC2(CCCN(Cc3cc(OC)ccc3F)C2)C1 (stereo not given) | -6.14%
O=C(c1ccc(S(=O)(=O)NCc2ccncc2)cc1)N1CCNCC1 | -6.98%
CC(C)(O)C1CCCN(C(=O)Nc2nc(-c3ccccc3)ns2)C1 (stereo not given) | -3.5%
CC1=NC2(CCN(CC(C)c3ccccc3)CC2)C(=O)N1 (stereo not given) | -8.98%
CC(=O)c1ccc(-c2cnn(CC(=O)Nc3cc(C)nn3C)c2)nc1 | -13%
CCCc1nc(N2CCCC(CCOC)C2)c2cnn(C)c2n1 (stereo not given) | 15.9%
CNC(=O)[C@@H]1C[C@@H](N)CN1Cc1cc2cc(C)cc(C)c2[nH]c1=O | -12%
C[C@@H]1CN(C(=O)CCc2cnn(C)c2)C[C@@]1(O)C1CCC1 | -5.7%
CC(C)c1cc(N2CCC(N(C)C)C2)n2nccc2n1 (stereo not given) | -8.85%
CCC(CO)N(Cc1cccnc1)C(=O)c1ccncc1F (stereo not given) | -9.31%
